These are literature values, as cited in patent US10736889B2, “Method of treating dyskinesia” (Rutgers, The State University of New Jersey, priority 2011, dated 2020).

Like-named read-outs stand apart in the source and are kept apart here.

For data set [1] the following is noted: compared with Nalbuphine itself.
Another data set has as its target κ-opioid receptors (Homo sapiens, UniProt P41145). As to conditions: for Ki: read-out: Ki for κ-opioid receptors; for IC50: read-out: IC50 for κ-opioid receptors.
For data set [2], the system named is 6-hydroxydopamine-lesioned rat model.
The next data set deals with μ-opioid receptors (Homo sapiens, UniProt P35372). The note with it: for Ki: read-out: Ki for μ-opioid receptors.
Chain of μ-opioid receptors (P35372 whole entry): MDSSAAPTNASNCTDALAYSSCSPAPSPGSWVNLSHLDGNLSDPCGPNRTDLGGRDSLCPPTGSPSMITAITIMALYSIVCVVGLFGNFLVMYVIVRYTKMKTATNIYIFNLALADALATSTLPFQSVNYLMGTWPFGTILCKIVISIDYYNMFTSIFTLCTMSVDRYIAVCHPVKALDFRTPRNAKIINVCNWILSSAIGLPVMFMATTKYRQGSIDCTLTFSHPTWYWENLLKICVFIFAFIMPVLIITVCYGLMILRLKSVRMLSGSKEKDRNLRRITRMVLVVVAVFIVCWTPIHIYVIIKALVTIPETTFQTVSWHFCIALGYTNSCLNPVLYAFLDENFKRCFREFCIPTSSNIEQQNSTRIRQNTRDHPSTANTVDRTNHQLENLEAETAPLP
The next data set has as its target δ-opioid receptors (Homo sapiens, UniProt P41143). The note with it: for Ki: read-out: Ki for δ-opioid receptors.
The test system of data set [3] is LID. As to conditions: variable effects in monkeys and humans.
The subject of data set [4] is LID. As to conditions: in vivo.
Data set [5] has as its system LID. The note with it: only drug available.
The subject of data set [6] is hemiparkinsonian marmoset monkeys. The note with it: lower doses.

Chain of δ-opioid receptors (P41143 whole entry): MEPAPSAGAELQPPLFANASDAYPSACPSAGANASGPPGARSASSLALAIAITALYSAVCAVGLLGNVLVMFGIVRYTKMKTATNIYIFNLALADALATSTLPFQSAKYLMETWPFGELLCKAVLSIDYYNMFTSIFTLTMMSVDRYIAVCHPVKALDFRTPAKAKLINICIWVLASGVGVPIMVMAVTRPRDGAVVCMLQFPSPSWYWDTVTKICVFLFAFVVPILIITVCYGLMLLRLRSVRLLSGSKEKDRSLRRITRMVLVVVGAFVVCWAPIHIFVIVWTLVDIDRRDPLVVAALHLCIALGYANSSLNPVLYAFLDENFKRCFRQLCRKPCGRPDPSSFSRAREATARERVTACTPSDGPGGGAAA
Chain of κ-opioid receptors (P41145 whole entry): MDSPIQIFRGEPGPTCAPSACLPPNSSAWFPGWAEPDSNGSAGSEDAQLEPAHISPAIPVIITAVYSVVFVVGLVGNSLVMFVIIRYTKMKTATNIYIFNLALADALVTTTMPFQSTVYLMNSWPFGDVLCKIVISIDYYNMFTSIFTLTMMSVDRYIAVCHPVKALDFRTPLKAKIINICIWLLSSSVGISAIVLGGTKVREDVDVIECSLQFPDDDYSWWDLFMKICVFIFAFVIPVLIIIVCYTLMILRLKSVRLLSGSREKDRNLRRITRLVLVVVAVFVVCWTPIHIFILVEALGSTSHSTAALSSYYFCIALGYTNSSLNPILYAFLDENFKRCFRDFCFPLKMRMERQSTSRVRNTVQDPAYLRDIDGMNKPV

`O=C(CCCCCCCCC(=O)Oc1ccc2c3c1O[C@H]1[C@@H](O)CC[C@@]4(O)[C@@H](C2)N(CC2CCC2)CC[C@]314)Oc1ccc2c3c1O[C@H]1[C@@H](O)CC[C@@]4(O)[C@@H](C2)N(CC2CCC2)CC[C@]314` [sebacoyl di-Nalbuphine ester]: the bioavailability entry in data set [1] is recorded as “improved over that of Nalbuphine itself”.

In general, Ki refers to the dissociation constant of the complex between target and ligand, obtained from inhibition or displacement. As to `CC(C)=CCN1CC[C@@]2(C)c3cc(O)ccc3C[C@@H]1C2C` (stereo in doubt) [Pentazocine], at κ-opioid receptors, the Ki is around 2.2 nM.

As to `Oc1ccc2c3c1O[C@H]1c4[nH]c5c(c4C[C@@]4(O)[C@@H](C2)N(CC2CC2)CC[C@]314)C[C@@]1(O)[C@H]2Cc3ccc(O)c4c3[C@@]1(CCN2CC1CC1)[C@H]5O4` [nor-BNI], the levodopa-induced hyperkinesias result in [2] is “moderates”.

Regarding `C=CCN1CCC2(C)c3cc(O)ccc3CC1C2C` (stereo not shown) [Alazocine], the Ki at κ-opioid receptors was around 4.7 nM; on μ-opioid receptors, around 3 nM; on δ-opioid receptors it was around 15 nM.

`C=CCN1CC[C@]23c4c5ccc(O)c4O[C@H]2C(=O)CC[C@@]3(O)[C@H]1C5` [Naloxone]: in the data set on LID [3], the LID entry is “no change, increases or decreases”.

By IC50 is commonly meant the concentration needed to halve the response being measured. With `CCC12CCN(CC3(O)CC3)C(Cc3ccc(O)cc31)C2(C)C` (stereo not shown) [Bremazocine], the half-maximal inhibitory concentration (IC50) at κ-opioid receptors is around 0.16 nM. Besides, the Ki on δ-opioid receptors is below 1000 nM.

Take `CNCC[C@@H](Oc1ccccc1C)c1ccccc1` [Atomoxetine]: the IC50 is around 4380 nM at κ-opioid receptors, around 4.19 µM at μ-opioid receptors and below 5 µM on δ-opioid receptors (read-out: IC50 for δ-opioid receptors).

On to `COc1cccc2c1[C@]13CCN(CC4CC4)[C@H](C2)[C@]1(OC)CCC(=O)C3` [cyprodime], for which the “peak-dose LID” value with LID [4] was “significantly reduces”.

In the case of `O=C1CC[C@@]2(O)[C@H]3Cc4ccc(O)c5c4[C@@]2(CCN3CC2CC2)[C@H]1O5` [Naltrexone], the LID entry in the data set on LID [3] is “no change, increases or decreases”.

On to `C=CCN1CC[C@]23c4c5ccc(OC)c4O[C@H]2[C@@H](O)C=C[C@H]3[C@H]1C5` [Nalodeine], for which, on δ-opioid receptors, the Ki is below 1000 nM.

In the case of N-allyl-normorphine [Nalorphine], the Ki on δ-opioid receptors is around 6.33 nM.

As for `Oc1ccc2c3c1O[C@H]1c4oc5ccccc5c4C[C@@]4(O)[C@@H](C2)N(CC2CC2)CC[C@]314` [Naltriben], the Ki on κ-opioid receptors is around 82.8 nM; at μ-opioid receptors, around 19.8 nM.

With `Cl.NC12CC3CC(CC(C3)C1)C2` [amantadine, 1-adamantanamine hydrochloride], the LID result with LID [5] is “modestly reduce LID”.

`NC(=O)c1ccc2c(c1O)[C@]13CCN(CC4CC4)C(C2)[C@]1(O)CCC(=O)C3` [Samidorphan]: the Ki on κ-opioid receptors was around 0.23 nM; at μ-opioid receptors it was around 0.052 nM; at δ-opioid receptors, around 2.6 nM.

Take `Oc1ccc2c(c1)[C@@]13CCCC[C@@]1(O)[C@@H](C2)N(CC1CCC1)CC3` [Butorphanol]: the Ki was around 0.12 nM on κ-opioid receptors and around 12 nM on δ-opioid receptors.

Consider `Oc1ccc2c3c1O[C@H]1c4[nH]c5ccccc5c4C[C@@]4(O)[C@@H](C2)N(CC2CC2)CC[C@]314` [naltrindole], for which the levodopa-induced rotations entry in data set [6] was “reduce levodopa-induced rotations”.
